Assay results from patent US12616706B2, “Compositions and methods of use comprising substances with neural plasticity actions administered at non-psychedelic/psychotomimetic dosages and formulations” (Arbormentis LLC, priority 2019, dated 2026).
Read-outs that look alike come from different tables or passages of the source.

Key:
c57BL/6 male mice [1] = experiment: Locomotion Activity Test (LMA), mice; assay type: in vivo, mouse; conditions: chronic (14 day) low dose 0.05 mg/Kg
Procedure: In order to ascertain whether the chronic administration of low dose psilocin-carbamate alters behavior in tested mice, the present inventors performed the Locomotion Activity Test (LMA), the Novelty Suppressed Feeding (NSF) test and the olfactory habitation/dishabituation test before and after the psilocin-carbamate treatment.
(§1) LMA has the aim of assessing spontaneous locomotor activity in laboratory animals. This test is performed in a gray arena (open field) exposed to light of regulated intensity (24 and 30 lux), avoiding light-shadow zones within the perimeter in which the experiment takes place. Along the base of the open field, 4 standard sized squares have been drawn, clearly visible even in the dark and large enough to allow the animal to remain inside them in all its length. The LMA test has been preceded by one hour of habituation, at the end of which the rat was inserted inside the open field, in one of the previously designed squares. The movements and behaviors in reaction to the environment were then recorded for 10 minutes.
Three fundamental aspects were assessed: 1. the number of crossings, i.e., the number of crossings made by the animal from one square to another, passing the line defining it with both legs. […]

c57BL/6 male mice [2] = experiment: Toxicity and tolerability observation, high fructose mice; assay type: in vivo, mouse; conditions: young
Procedure: (§2) Mice were fed with standard diet and fructose (30% w/v in drinking water) was added to their diet 4 days before randomization.
During the experiment, the animals were carefully monitored every day for a period not exceeding the maximum experimental endpoints. Access to water (30% w/v fructose) and food ad libitum was allowed. No obvious clinical symptoms were observed during the experimental period.

NMDAR2A = NMDAR2A protein expression in ARPE-19 cells (immunofluorescence); assay type: cell-based; conditions: chronic treatment with psilocin carbamate for 96 hours
Procedure: (§3) First, the present inventors assessed the expression of three NMDAR subunits (NMDAR1, NMDAR2A, NMDAR2B) and two 5-HT2 subtypes (5-HT2A, 5-HT2C) by immunofluorescence coupled to confocal microscopy. 7,500 cells/well were plated in a 24-well plate on sterile glass coverslips. The next day, the immunofluorescence analysis was performed. The following primary antibodies were used: anti-NMDAR1A (Abcam, ab68144), NMDAR2A (Bioss, bs-3507R-TR), NMDAR2B (Bioss, bs-0222R-TR), 5-HT2A (Bioss, bs-12049R), 5-HT2C (Bioss, 2959R), and the secondary antibody goat anti-rabbit IgG (GeneTex, GTX213110-04). The images of the immunostained cells were acquired by means of a confocal microscope Zeiss LSM 800, using a 63× magnification and can be seen in FIGS. 9A-9E. ImageJ software was used to quantify the intensity of the fluorescent signal.
(§4) 7,500 cells/well were plated in a 24-well plate on sterile glass coverslips. […] After 6 days an immunofluorescence analysis coupled to confocal microscopy was performed with the primary and secondary antibodies described above.

[3] = Blood glucose after 2-hours fasting, mice; assay type: in vivo, mouse; conditions: 0.05 mg/kg daily
Procedure: as §2
Before sacrifice, the present inventors measured the blood glucose concentration of the mice after a 2-hours fasting.

p70 = p70 protein expression in lateral cortex (Western blot); assay type: in vivo, mouse; conditions: not detected in adult mice
Procedure: (§5) Mice were euthanized by cervical dislocation. Immediately after the sample, fresh tissues were cut isolating 4 brain regions (cerebellum, lateral cortex, olfactory bulb, and the remaining brain), quickly collected and put in cryovials in liquid nitrogen and then kept at −80° C.
(§6) Brain tissues were lysed in RIPA lysis buffer (Invitrogen) and 1% (v/v) protease and phosphatase inhibitor cocktail (Sigma). Proteins were extracted by centrifugation at 14000 rpm at 4° C. for 30 minutes. Bicinchoninic Acid Assay (BCA) kit (1113 catalog #23225 Thermo-Scientific) was used to determine the protein concentration following the manufacturer's instructions. Western blot analyses to determine NMDAR 1 (primary antibody: Abcam, ab68144), PSD95 (Bioss, bs-0179R-TR), p70 (Bioss, bs-3498R-TR) and synapsin 1 (Bioss, bs-3501 R-TR) protein expression were performed using 30 μg per lane of nuclear or lateral cortex lysates. SDS-PAGE was performed on 8% polyacrylamide gels in reducing-denaturing condition and proteins were transferred to a 0.45 μm nitrocellulose membrane (BioRad Laboratories). Signal intensity of immunoreactive bands was analyzed by the Quantity One software (Bio-Rad Laboratories S.r.l.) and was normalized to that of the loading control GAPDH.

synapsin 1 = experiment: Synapsin 1 protein expression in lateral cortex (Western blot); assay type: in vivo, mouse; conditions: adult mice; not significant
Procedure: as §5, §6

NMDAR2B = NMDAR2B protein expression in ARPE-19 cells (immunofluorescence); assay type: cell-based; conditions: chronic treatment with psilocin carbamate for 96 hours
Procedure: as §3, §4

[4] = Body and liver weight at sacrifice, mice; assay type: in vivo, mouse; conditions: 0.05 mg/kg daily
Procedure: as §2

PSD95 = PSD95 protein expression in lateral cortex (Western blot); assay type: in vivo, mouse; conditions: not significant
Procedure: as §5, §6

NMDAR1 = NMDAR1 protein expression in lateral cortex (Western blot); assay type: in vivo, mouse; conditions: 0.05 mg/kg daily
Procedure: as §5, §6

Western Diet fed rats [5] = experiment: Liver histology (hematoxylin-eosin), hepatic steatosis; conditions: WD rats, 0.05 mg/kg 15 days; median (range in next column); WD alone 15
[6] = design: AUC: unit not given beside the values; conditions: cited from earlier work
Western Diet fed rats [7] = experiment: Locomotion Activity Test (LMA), WD rats; assay type: in vivo, rat; conditions: chronic (15 day) low dose 0.05 mg/Kg
Procedure: as §1, with “In order to ascertain whether the chronic administration of low dose psilocybin alters behavior in WD fed rats, the present inventors performed the Locomotion Activity Test (LMA) before and after the psilocybin treatment (see FIGS. 7A-7C). This test has” for “LMA has”
In the LMA test, three fundamental aspects were assessed: 1. the number of crossings, i.e., the number of crossings made by the animal from one square to another, passing the line defining it with both legs. This value gives an indication of the distance traveled by the animal during the test and of its locomotor activity; 2. the number of rearings, i.e, the number of times the animal lifts up on the two posterior legs. […]

[8] = psilocybin 10, 20, 30 mg; cited from earlier work
[9] = test system: Ki67 positive cells in the subventricular zone; experiment: Neurogenesis in SVZ, Ki67 positive cells; assay type: in vivo, rat; conditions: WD rats, 0.05 mg/Kg gastric gavage 15 days; WD 2722±225, SD 4601±17
Procedure: Methods: To perform immunohistochemistry, rats were euthanized and then perfused with 0.9% saline followed by 4% paraformaldehyde (PFA) in 1× phosphate saline buffer (PBS) (rats n tot=8, n=2 for each condition). Rats brains were promptly dissected and then post-fixed in 4% PFA for 48 hours. Brains were embedded in 2.5% agarose (Sigma-Aldrich) and then sectioned in sagittal sections (40 μm thick) at the vibratome (Vibratome VT1000S, Leica). Sagittal brain sections including the subventricular zone, were treated with a blocking solution of 10% normal goat serum (Jackson ImmunoResearch) in 1×PBS for 1 hour and then stained with rabbit anti-Ki67 monoclonal antibody (Abcam, AB 16667) (1:200) overnight. […] Brain sections were mounted with Aqua-Poly/Mount (Polysciences). Images of the sagittal sections containing the subventricular zone were acquired at the confocal microscope (Zeiss LSM 700) equipped with an EC Plan-Neofluar 20×/0.50 M27 objective (Zeiss). Ki67 positive cells were counted along the lateral wall of the lateral ventricles in rat brain sagittal sections, using ImageJ software (RRID: nif-000030467).

CC[C@H](C)[C@H](NC(=O)Oc1cccc2[nH]cc(CCN(C)C)c12)C(=O)O [psilocin-carbamate]
Psychedelic behavioral effects (c57BL/6 male mice [1]): no evidence of psychedelic behavioral effects
Safety and tolerability (c57BL/6 male mice [2]; 0.05 mg/kg daily for 14 days, adult and old mice): safe and well-tolerated
Signs of toxicity and mortality (c57BL/6 male mice [2]; adult, old mice, 0.05 mg/kg gastric gavage, 14 days): No signs of toxicity and no mortality
NMDAR2A expression (NMDAR2A): reduction
Blood glucose control ([3]; mice): no effect
Blood glucose concentration ([3]; old mice): tendency towards a lower blood glucose concentration
p70 protein expression, lateral cortex (p70): no significant differences
Synapsin 1 protein expression, lateral cortex (synapsin 1): tended to increase
NMDAR2B expression (NMDAR2B): reduction
Liver weight at sacrifice ([4]; adult mice): decrease
Body weight at sacrifice ([4]; adult mice, p<0.05): decrease
Body and liver weight ([4]; young mice): no effect
PSD95 protein expression, lateral cortex (PSD95; adult mice, tendency): decrease
PSD95 protein expression, lateral cortex (PSD95; young mice): tended to increase
NMDAR1 protein expression, lateral cortex (NMDAR1; adult mice): tended to decrease
NMDAR1 protein expression, lateral cortex (NMDAR1; young and old mice): tended to increase

CN(C)CCc1c[nH]c2cccc(OP(=O)(O)O)c12 [psilocybin]
% Hepatic macrovescicular steatosis (Western Diet fed rats [5]): 5%
AUC ([6]; 1 mg IV psilocybin): 240+−55
Cmax ([6]; 1 mg IV psilocybin): 12.9+−5.6 ng/ml
AUC ([6]; oral psilocybin 10-20 mg): 1963+−659
Cmax ([6]; oral psilocybin 10-20 mg): 8.2+−2.8 ng/ml
Tmax ([6]; oral psilocybin 10-20 mg): 105+−37 min
Psychedelic behavioral effects (Western Diet fed rats [7]): no evidence of psychedelic behavioral effects
Psychomotor performance, working memory, episodic memory, associative learning, visual perception [8]: dose-dependent negative effects
New cells (Ki67 positive) in SVZ, n [9]: 3404±199
